Type in all cases: cell-based
Test [1] concerns the target T1, human TLR8 (Homo sapiens, UniProt Q9NR97).
T1 construct: host or cells: HEK-Blue cells
T1 sequence (Q9NR97 27-1041): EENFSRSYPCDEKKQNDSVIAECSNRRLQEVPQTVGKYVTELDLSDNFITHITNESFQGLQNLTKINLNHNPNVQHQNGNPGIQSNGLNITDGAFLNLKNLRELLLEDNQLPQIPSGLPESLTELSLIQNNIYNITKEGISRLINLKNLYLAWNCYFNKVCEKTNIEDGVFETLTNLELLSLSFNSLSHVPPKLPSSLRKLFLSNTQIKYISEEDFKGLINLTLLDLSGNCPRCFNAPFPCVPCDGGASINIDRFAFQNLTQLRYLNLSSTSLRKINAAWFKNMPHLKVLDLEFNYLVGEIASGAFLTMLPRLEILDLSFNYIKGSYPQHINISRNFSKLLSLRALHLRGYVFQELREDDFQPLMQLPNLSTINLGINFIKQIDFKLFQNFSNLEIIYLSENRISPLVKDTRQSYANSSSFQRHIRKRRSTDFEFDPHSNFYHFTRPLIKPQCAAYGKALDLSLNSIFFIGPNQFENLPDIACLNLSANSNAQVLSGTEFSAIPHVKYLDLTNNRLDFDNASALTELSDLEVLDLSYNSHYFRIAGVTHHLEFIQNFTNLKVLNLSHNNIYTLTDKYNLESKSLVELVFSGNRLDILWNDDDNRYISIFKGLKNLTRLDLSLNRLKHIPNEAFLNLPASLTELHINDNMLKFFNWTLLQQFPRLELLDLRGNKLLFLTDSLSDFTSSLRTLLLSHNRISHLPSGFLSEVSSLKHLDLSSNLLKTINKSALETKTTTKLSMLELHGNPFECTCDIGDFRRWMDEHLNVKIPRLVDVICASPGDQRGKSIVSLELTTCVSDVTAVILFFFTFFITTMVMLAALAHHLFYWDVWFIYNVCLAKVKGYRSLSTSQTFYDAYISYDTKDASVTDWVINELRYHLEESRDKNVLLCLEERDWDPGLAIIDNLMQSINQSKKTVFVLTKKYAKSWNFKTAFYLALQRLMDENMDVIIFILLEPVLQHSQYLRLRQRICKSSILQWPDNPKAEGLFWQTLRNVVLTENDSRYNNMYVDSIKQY
Put plainly: TLR8 inhibition reporter assay (HEK-Blue SEAP). Particulars: HEK-Blue cells overexpressing human TLR8, stimulated with R848 15.9 μM, 22 hour incubation. The procedure: (§1) TLR7/8/9 Inhibition Reporter Assays
(§2) HEK-Blue™-cells (Invivogen) overexpressing human TLR7, TLR8 or TLR9 receptors were used for screening inhibitors of these receptors using an inducible SEAP (secreted embryonic alkaline phosphatase) reporter gene under the control of the IFN-β minimal promoter fused to five NF-κB and AP-1-binding sites. Briefly, cells are seeded into Greiner 384 well plates (15000 cells per well for TLR7, 20,000 for TLR8 and 25,000 for TLR9) and then treated with test compounds in DMSO to yield a final dose response concentration range of 0.05 nM to 50 μM. After a 30 minute compound pre-treatment at room temperature, the cells are then stimulated with a TLR7 ligand (gardiquimod at a final concentration of 7.5 μM), TLR8 ligand (R848 at a final concentration of 15.9 μM) or TLR9 ligand (ODN2006 at a final concentration of 5 nM) to activate NF-κB and AP-1 which induce the production of SEAP. After a 22 hour incubation at 37° C., 5% CO2, SEAP levels are determined with the addition of HEK-Blue™ Detection reagent (Invivogen), a cell culture medium that allows for detection of SEAP, according to manufacturer's specifications. The percent inhibition is determined as the % reduction in the HEK-Blue signal present in wells treated with agonist plus DMSO alone compared to wells treated with a known inhibitor.
(Reporter assays use an easily measured gene product as a stand-in for the process of interest.)

For test [2], the target named is T2, human TLR7 (Homo sapiens, UniProt Q9NYK1).
T2 construct: host or cells: HEK-Blue cells
T2 sequence (Q9NYK1 27-1049): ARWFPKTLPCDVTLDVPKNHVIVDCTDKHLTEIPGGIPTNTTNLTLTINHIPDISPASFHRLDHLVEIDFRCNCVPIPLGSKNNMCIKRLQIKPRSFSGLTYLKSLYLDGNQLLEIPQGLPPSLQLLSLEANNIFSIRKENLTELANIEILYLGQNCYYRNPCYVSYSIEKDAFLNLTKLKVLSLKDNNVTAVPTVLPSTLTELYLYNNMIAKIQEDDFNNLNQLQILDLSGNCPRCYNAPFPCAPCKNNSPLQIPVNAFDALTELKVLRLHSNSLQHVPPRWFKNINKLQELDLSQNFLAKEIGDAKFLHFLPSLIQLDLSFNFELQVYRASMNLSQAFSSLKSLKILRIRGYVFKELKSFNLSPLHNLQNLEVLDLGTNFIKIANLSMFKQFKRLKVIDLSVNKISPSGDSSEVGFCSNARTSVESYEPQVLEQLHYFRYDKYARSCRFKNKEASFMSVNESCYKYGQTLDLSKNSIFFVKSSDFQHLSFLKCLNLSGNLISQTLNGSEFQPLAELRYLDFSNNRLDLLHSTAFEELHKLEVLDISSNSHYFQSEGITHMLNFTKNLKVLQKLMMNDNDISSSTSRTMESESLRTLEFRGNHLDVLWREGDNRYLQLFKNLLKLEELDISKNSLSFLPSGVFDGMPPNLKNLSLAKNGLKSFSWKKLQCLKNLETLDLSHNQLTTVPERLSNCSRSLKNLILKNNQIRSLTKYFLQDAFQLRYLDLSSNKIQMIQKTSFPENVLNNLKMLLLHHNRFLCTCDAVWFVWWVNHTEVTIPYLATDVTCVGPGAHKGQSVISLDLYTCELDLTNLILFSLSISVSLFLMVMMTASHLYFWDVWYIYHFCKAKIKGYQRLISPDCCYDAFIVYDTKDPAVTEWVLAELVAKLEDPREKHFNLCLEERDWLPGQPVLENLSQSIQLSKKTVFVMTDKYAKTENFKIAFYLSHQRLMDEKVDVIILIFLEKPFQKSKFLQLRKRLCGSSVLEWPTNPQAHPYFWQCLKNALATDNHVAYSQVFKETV
The experiment in a line: TLR7 inhibition reporter assay (HEK-Blue SEAP). Particulars: HEK-Blue cells overexpressing human TLR7, stimulated with gardiquimod 7.5 μM, 22 hour incubation. The procedure:
as §1, §2

Test [3] addresses T3, human TLR9 (Homo sapiens, UniProt Q9NR96).
T3 construct: host or cells: HEK-Blue cells
T3 sequence (Q9NR96 26-1032): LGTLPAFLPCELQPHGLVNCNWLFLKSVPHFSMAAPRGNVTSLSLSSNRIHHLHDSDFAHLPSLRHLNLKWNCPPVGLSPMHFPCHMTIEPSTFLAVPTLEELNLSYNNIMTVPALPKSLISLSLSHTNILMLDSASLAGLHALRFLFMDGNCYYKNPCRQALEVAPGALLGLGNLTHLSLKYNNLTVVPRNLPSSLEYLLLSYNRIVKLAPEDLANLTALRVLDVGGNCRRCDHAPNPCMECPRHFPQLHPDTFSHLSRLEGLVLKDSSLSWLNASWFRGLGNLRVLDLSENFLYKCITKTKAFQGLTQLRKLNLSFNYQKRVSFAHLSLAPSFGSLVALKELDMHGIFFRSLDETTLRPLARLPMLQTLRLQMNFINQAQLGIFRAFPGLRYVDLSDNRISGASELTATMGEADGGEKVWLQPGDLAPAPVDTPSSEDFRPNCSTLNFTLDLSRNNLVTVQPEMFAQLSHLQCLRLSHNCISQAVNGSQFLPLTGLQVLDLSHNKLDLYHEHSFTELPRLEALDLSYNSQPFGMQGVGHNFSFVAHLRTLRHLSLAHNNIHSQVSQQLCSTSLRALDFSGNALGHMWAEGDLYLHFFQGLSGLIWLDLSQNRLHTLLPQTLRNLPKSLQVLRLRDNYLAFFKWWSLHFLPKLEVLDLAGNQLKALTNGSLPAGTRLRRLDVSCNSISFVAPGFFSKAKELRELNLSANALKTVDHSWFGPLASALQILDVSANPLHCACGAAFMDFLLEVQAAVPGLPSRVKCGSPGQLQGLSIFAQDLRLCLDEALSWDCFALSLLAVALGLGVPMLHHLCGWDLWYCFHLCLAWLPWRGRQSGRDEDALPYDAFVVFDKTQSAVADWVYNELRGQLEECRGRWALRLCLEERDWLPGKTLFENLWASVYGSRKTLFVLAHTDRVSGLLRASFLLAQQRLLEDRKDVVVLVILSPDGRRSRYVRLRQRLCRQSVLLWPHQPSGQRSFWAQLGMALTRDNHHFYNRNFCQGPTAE
Put plainly: TLR9 inhibition reporter assay (HEK-Blue SEAP). Particulars: HEK-Blue cells overexpressing human TLR9, stimulated with ODN2006 5 nM, 22 hour incubation. On the procedure: as §1, §2

SMILES strings stand for the structures.

For orientation: IC50 means the point on the concentration scale where inhibition reaches its midpoint. In the case of `Cc1cc(-c2ccc3c(CCNC4CCNCC4)c[nH]c3c2)cn2ncnc12` [Example 13, N-(2-(6-(8-methyl-[1,2,4]triazolo[1,5-a]pyridin-6-yl)-1H-indol-3-yl)ethyl)piperidin-4-amine], the values for the IC50 in test [1], in test [2] and in test [3] were 269 nM, 1690 nM and 605 nM, respectively.

Regarding `Cc1cc(-c2cc3[nH]nc(C4CCN(CCC#N)CC4)c3cc2C(C)C)cn2ncnc12` [Example 121, 3-(4-(5-isopropyl-6-(8-methyl-[1,2,4]triazolo[1,5-a]pyridin-6-yl)-1H-indazol-3-yl)piperidin-1-yl)propanenitrile], the IC50 in test [1] worked out at 0.1 nM; in test [2], 1.9 nM.

For the compound `CCc1cc2c(C3CCN(CC#N)CC3)n[nH]c2cc1-c1cc(C)c2ncnn2c1` [Example 104, 2-(4-(5-ethyl-6-(8-methyl-[1,2,4]triazolo[1,5-a]pyridin-6-yl)-1H-indazol-3-yl)piperidin-1-yl)acetonitrile], the IC50 in test [1] worked out at 0.8 nM; in test [2] it was 6.9 nM; in test [3], 13600 nM.

For the compound `CCOC1CN(C2CCC(c3n[nH]c4cc(-c5cc(C)c6ncnn6c5)c(C(C)C)cc34)CC2)C1` (single isomer, unassigned) [Example 150, 6-(3-(4-(3-ethoxyazetidin-1-yl)cyclohexyl)-5-isopropyl-1H-indazol-6-yl)-8-methyl-[1,2,4]triazolo[1,5-a]pyridine], the IC50 in test [1] worked out at 0.1 nM; in test [2], 1.7 nM; in test [3], 6910 nM.

Regarding `Cc1cc(-c2cc3[nH]nc(C4CCC(N5CCC6(COC6)C5)CC4)c3cc2C(C)C)cn2ncnc12` (single isomer, unassigned) [Example 160, 6-(4-(5-isopropyl-6-(8-methyl-[1,2,4]triazolo[1,5-a]pyridin-6-yl)-1H-indazol-3-yl)cyclohexyl)-2-oxa-6-azaspiro[3.4]octane], the figures for the concentration for half-maximal inhibition (IC50) in test [1] and in test [3] were 0.4 nM and 7300 nM, respectively.

Regarding `Cc1cc(-c2cc3[nH]nc(C4CCC(N5CCC6(COC6)C5)CC4)c3cc2C(C)C)cn2ncnc12` (single isomer, unassigned) [Example 159, 6-(4-(5-isopropyl-6-(8-methyl-[1,2,4]triazolo[1,5-a]pyridin-6-yl)-1H-indazol-3-yl)cyclohexyl)-2-oxa-6-azaspiro[3.4]octane], the IC50 worked out at 0.1 nM in test [1] and 7430 nM in test [3].

On to `CCc1cc2c(C3CCN(C4COC4)CC3)n[nH]c2cc1-c1cc(C)c2ncnn2c1` [Example 89, 6-(5-ethyl-3-(1-(oxetan-3-yl)piperidin-4-yl)-1H-indazol-6-yl)-8-methyl-[1,2,4]triazolo[1,5-a]pyridine], for which the IC50 came out at 0.7 nM in test [1] and 8.3 nM in test [2].

As to `Cc1cc(-c2cc3[nH]nc(C4CCC(NCC(=O)N(C)C)CC4)c3cc2C(C)C)cn2ncnc12` (single isomer, unassigned) [Example 124, 2-((4-(5-isopropyl-6-(8-methyl-[1,2,4]triazolo[1,5-a]pyridin-6-yl)-1H-indazol-3-yl)cyclohexyl)amino)-N,N-dimethylacetamide], the IC50 in test [2] came out at 0.3 nM; in test [3] it was 11000 nM.

With `Cc1cc2cn[nH]c2cc1-c1cc(C)c2ncnn2c1` [Example 63, 8-methyl-6-(5-methyl-1H-indazol-6-yl)-[1,2,4]triazolo[1,5-a]pyridine], the IC50 in test [1] is 32.4 nM; in test [2], 562 nM.

Consider `Cc1cc(-c2cc3[nH]nc(C4CCC(N5CCC(C)(O)C5)CC4)c3cc2C(C)C)cn2ncnc12` (single isomer, unassigned) [Example 165, 1-(4-(5-isopropyl-6-(8-methyl-[1,2,4]triazolo[1,5-a]pyridin-6-yl)-1H-indazol-3-yl)cyclohexyl)-3-methylpyrrolidin-3-ol], for which the IC50 in test [2] was 0.5 nM; in test [3] it was 13300 nM.

In the case of `Cc1cc(-c2cc3[nH]nc(C4CCC(N(C)C)CC4)c3cc2C(C)C)cn2ncnc12` (stereo not shown) [Example 114, 4-(5-isopropyl-6-(8-methyl-[1,2,4]triazolo[1,5-a]pyridin-6-yl)-1H-indazol-3-yl)-N,N-dimethylcyclohexan-1-amine], the results for the 50% inhibitory concentration (IC50) in test [2] and in test [3] were 0.2 nM and 6670 nM, respectively.

These data come from patent US12172995B2, “Substituted indole and indazole compounds” (BRISTOL-MYERS SQUIBB COMPANY, priority 2018, dated 2024).
